Data published in ChEMBL document CHEMBL1141742, “A Novel Insect Antifeedant Nonprotein Amino Acid from Calotropis gigantea” (1998).
Active and inactive are the calls of the source. The calls are words filed in the database; no cut-off is given here.

Experiments:
Schistocerca gregaria [1] = test: Antifeedant activity against 5th instar nymphs of Schistocerca gregaria assessed as feeding reduction at 1 ng/cm'2 by filter paper based feeding assay; format: functional, organism-based
Schistocerca gregaria [2] = test: Antifeedant activity against 5th instar nymphs of Schistocerca gregaria assessed as feeding reduction at 1.6 ug/cm'2 by maize leave choice feeding assay; format: functional; set-up: scale not given: the % may be the effect or the level left
Schistocerca gregaria [3] = test: Antifeedant activity against 5th instar nymphs of Schistocerca gregaria assessed as feeding reduction at 5 ug/cm'2 by maize leave choice feeding assay; format: functional; set-up: scale not given: the % may be the effect or the level left
Schistocerca gregaria [4] = test: Antifeedant activity against 5th instar nymphs of Schistocerca gregaria assessed as feeding reduction at 3.2 ug/cm'2 by maize leave choice feeding assay; format: functional; set-up: scale not given: the % may be the effect or the level left
Schistocerca gregaria [5] = test: Antifeedant activity against 5th instar nymphs of Schistocerca gregaria assessed as feeding reduction at 6.6 ug/cm'2 by maize leave choice feeding assay; format: functional; set-up: scale not given: the % may be the effect or the level left

SMILES | Activity (Schistocerca gregaria [1]) | Activity (Schistocerca gregaria [2]) | Activity (Schistocerca gregaria [3]) | Activity (Schistocerca gregaria [4]) | Activity (Schistocerca gregaria [5])
C/C=C(\C)C(=O)O[C@H]1C[C@@H](OC(C)=O)[C@@]2(C(=O)OC)CO[C@H]3[C@@H](O)[C@@](C)([C@]45O[C@@]4(C)[C@@H]4C[C@H]5O[C@@H]5OC=C[C@@]54O)[C@H]4[C@]1(CO[C@]4(O)C(=O)OC)[C@@H]32 | Active | – | – | – | –
CCOC(=O)Nc1ccc([C@H](NC(C)=O)C(=O)O)cc1 [GIGANTICINE] | – | 55% | 80% | 68% | 90%
